Test results published in ChEMBL document CHEMBL5050849 (2020).

The compounds below were run against Ubiquitin carboxyl-terminal hydrolase 9X (Homo sapiens, UniProt Q93008) (assay: Inhibition of USP9X (unknown origin) using Ubiquitin-Rhoadmine 110 as substrate preincubated for 30 mins followed by substrate addition and measured after 11 mins by fluorescence assay).
Format: single protein

Ubiquitin carboxyl-terminal hydrolase 9X, sequence (Q93008 whole entry): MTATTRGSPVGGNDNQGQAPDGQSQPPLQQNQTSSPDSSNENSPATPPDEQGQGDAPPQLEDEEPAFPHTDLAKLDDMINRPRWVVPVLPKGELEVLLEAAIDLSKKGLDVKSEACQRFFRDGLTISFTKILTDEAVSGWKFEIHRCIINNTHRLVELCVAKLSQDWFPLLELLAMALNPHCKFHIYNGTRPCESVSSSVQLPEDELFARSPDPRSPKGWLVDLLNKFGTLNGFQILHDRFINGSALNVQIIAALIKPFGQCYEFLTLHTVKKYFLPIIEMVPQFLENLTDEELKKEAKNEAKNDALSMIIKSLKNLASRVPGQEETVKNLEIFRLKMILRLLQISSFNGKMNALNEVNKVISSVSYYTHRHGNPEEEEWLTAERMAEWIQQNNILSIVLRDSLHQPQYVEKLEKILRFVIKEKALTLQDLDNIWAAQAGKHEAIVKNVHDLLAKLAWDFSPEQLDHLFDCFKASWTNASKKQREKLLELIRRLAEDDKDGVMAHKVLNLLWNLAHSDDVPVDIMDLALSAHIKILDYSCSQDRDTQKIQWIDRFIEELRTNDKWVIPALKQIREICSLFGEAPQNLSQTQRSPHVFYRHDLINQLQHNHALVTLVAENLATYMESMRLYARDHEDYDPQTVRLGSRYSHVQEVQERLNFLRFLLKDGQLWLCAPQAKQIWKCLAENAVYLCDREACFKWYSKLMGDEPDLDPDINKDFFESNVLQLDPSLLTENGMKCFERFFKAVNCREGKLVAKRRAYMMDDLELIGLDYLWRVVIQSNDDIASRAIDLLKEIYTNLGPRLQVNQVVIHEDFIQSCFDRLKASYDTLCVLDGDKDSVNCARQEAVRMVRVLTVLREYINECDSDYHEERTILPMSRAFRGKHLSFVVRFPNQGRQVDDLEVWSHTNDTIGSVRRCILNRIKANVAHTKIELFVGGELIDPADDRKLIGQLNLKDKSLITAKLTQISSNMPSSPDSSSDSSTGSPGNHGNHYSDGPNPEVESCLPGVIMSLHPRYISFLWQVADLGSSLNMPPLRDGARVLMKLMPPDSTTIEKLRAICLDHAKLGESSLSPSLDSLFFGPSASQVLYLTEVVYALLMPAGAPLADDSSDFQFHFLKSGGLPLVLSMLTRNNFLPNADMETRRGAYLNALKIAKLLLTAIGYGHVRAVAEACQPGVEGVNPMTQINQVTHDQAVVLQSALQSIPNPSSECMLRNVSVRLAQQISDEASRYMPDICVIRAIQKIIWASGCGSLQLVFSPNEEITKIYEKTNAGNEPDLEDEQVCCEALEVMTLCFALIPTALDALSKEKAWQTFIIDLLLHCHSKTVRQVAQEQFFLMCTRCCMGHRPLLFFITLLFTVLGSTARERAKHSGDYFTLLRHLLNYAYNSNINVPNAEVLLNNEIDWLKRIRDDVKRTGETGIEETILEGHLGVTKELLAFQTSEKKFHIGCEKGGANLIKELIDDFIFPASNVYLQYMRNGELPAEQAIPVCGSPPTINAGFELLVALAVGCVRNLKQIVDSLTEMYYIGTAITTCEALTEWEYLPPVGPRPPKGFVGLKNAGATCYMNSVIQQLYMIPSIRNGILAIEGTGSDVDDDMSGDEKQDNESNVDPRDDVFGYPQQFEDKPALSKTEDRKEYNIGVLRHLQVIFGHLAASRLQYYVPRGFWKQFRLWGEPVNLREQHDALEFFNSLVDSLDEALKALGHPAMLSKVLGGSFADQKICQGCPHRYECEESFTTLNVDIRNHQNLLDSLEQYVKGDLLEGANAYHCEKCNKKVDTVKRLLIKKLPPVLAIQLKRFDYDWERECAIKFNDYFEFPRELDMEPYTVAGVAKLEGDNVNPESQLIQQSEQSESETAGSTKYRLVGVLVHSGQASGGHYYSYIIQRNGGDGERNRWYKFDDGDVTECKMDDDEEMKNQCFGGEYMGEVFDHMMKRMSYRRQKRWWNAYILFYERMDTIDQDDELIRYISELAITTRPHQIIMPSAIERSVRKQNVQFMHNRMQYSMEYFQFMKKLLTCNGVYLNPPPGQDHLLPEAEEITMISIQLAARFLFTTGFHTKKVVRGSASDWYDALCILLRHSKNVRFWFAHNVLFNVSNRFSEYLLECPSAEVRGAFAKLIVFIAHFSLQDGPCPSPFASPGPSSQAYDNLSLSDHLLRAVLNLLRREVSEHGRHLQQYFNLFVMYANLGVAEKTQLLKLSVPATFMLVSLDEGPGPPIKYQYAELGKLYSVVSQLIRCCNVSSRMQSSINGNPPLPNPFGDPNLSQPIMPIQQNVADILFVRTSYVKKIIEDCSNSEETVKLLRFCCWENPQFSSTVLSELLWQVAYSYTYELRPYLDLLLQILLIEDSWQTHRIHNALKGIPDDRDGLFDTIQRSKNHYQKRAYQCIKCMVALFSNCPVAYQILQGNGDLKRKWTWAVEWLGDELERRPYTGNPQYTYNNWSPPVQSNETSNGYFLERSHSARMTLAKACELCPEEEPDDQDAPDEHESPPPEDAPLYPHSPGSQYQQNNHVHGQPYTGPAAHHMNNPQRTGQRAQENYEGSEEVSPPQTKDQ

SMILES	IC50
COc1ccc(S(=O)(=O)N2CCc3nn(C(=O)[C@@H](O)c4ccccc4)cc3C2)cc1O	> 25 µM
O=S(=O)(c1ccccc1)c1cc2c(cn1)CN(S(=O)(=O)c1ccc(-c3ncco3)cc1)C2	> 25 µM
C[C@@H](c1ccccc1)N1Cc2cc(S(=O)(=O)c3ccc4c(c3)OCCO4)ccc2C1=O	> 25 µM
O=C(c1cccc(Cl)c1)c1cc2c(cn1)CN(S(=O)(=O)c1ccc3c(c1)OCCO3)C2	> 25 µM
O=S(=O)(C1CCN(c2ncco2)CC1)N1Cc2cnc(C(O)c3ccccc3)cc2C1 (centres undefined)	> 25 µM

Second part, the compound after the results:

IC50	SMILES
> 25 µM	O=C([C@@H](O)c1ccccc1)N1CCc2c(cnn2S(=O)(=O)c2ccc3c(c2)OCCO3)C1
> 25 µM	O=S(=O)(c1ccc(-n2ccnc2)cc1)N1Cc2cnc(C(O)c3ccccc3)cc2C1 (centres undefined)
> 25 µM	O=S(=O)(C1CCN(c2nccs2)CC1)N1Cc2cnc(C(O)c3ccccc3)cc2C1 (centres undefined)
> 25 µM	OC(c1ccccc1)c1cc2c(cn1)CN(Cc1ccc3c(c1)OCCO3)C2 (centres undefined)
